Molecular target: T1, GST-tagged ROR gamma ligand binding domain (LBD) (Homo sapiens, UniProt P51449)
T1 construct: purchased Invitrogen
T1 sequence (P51449 269-508 limits assumed): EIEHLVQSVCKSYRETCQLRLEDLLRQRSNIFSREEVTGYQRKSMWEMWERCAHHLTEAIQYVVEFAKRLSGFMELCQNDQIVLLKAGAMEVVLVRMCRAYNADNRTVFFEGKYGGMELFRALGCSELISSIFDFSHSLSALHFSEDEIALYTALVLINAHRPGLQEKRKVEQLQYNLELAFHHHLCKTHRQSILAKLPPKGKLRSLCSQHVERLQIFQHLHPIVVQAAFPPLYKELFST
Experiment: TR-FRET assay for ROR gamma (LanthaScreen co-activator peptide recruitment)
Assay type: biochemical
Conditions: for inhibition at 1 µM: compound concentration 1 μM; for inhibition at 1 µM / inhibition at 10 µM: TR-FRET ratio 520/495, percent of control; for inhibition at 10 µM: compound concentration 10 μM; for IC50: from dose response curve, nonlinear regression, read-out: IC50 range
Text: The compounds described herein were screened for ROR gamma modulator activity using the TR-FRET assay (LanthaScreen™ available from Invitrogen of Carlsbad, Calif.) as described in JBC 2011, 286, 26: 22707-10; and Drug Metabolism and Disposition 2009, 37, 10: 2069-78.
Binding of the co-activator peptide, causes an increase in the TR-FRET signal while binding of an antagonist decreases the recruitment of the co-activator peptide, causing a decrease in the TR-FRET signal compared to control with no compound. The assay was performed using a two-step procedure, pre-incubation step with the compound followed by the detection step on addition of the anti-GST tagged terbium (Tb) and fluorescein tagged fluorophores as the acceptor.
Test compounds or reference compounds such as T0901317 (Calbiochem) were dissolved in dimethylsulfoxide (DMSO) to prepare 10.0 mM stock solutions and diluted to the desired concentration. The final concentration of DMSO in the reaction was 4% (v/v). The assay mixture was prepared by mixing 10 nM of the GST-tagged ROR gamma ligand binding domain (LBD) in the assay buffer containing 25 mM HEPES (pH 7.4), 100 mM NaCl, 5 mM DTT and 0.01% BSA with or without the desired concentration of the compound. The reaction was incubated at 22° C. for 1 hour. The pre-incubation step was terminated by addition of the detection mixture containing 300 nM Fluorescein-D22 co-activator peptide and 10 nM lantha screen Tb-anti GST antibody into the reaction mixture.
After shaking for 5 minutes the reaction was further incubated for 1 hour at room temperature and read at 4° C. on an Infinite F500 reader as per the kit instructions (Invitrogen). The inhibition of test compound was calculated based on the TR-FRET ratio of 520/495. The activity was calculated as a percent of control reaction. IC50 values were calculated from dose response curve by nonlinear regression analysis using GraphPad Prism software.

Row | SMILES | inhibition at 1 µM [%] | inhibition at 10 µM [%] | IC50 [nM]
1 | CCc1ccccc1-c1nccnc1-c1ccc(NC(=O)Cc2ccc(C(F)(F)[C@@H](C)O)cc2)cc1 [Example 53, (R)-2-(4-(1,1-difluoro-2-hydroxypropyl)phenyl)-N-(4-(3-(2-ethylphenyl)pyrazin-2-yl)phenyl)acetamide] | 70.5 | 77 | < 50
2 | CC(O)C(F)(F)c1ccc(CC(=O)Nc2ccc(-c3nccnc3N3CCN(C(=O)C4CC4)CC3)cc2)cc1 (stereo not drawn) [Example 54, N-(4-(3-(4-(Cyclopropanecarbonyl)piperazin-1-yl)pyrazin-2-yl)phenyl)-2-(4-(1,1-difluoro-2-hydroxypropyl)phenyl)acetamide] | 23.1 | 42.4 | 
3 | CCC(F)(F)c1ccc(CC(=O)Nc2ccc(-c3nccnc3N(C)c3ccc(Cl)cc3)cc2)cc1 [Example 55, N-(4-(3-((4-Chlorophenyl)(methyl)amino)pyrazin-2-yl)phenyl)-2-(4-(1,1-difluoropropyl)phenyl)acetamide] | 56.5 | 64.6 | 
4 | CCC(F)(F)c1ccc(CC(=O)Nc2ccc(-c3nccnc3N(C)Cc3ccccc3)cc2)cc1 [Example 56, N-(4-(3-(Benzyl(methyl)amino)pyrazin-2-yl)phenyl)-2-(4-(1,1-difluoropropyl)phenyl)acetamide] | 73.4 | 85.8 | 100 to 500
5 | CCC(F)(F)c1ccc(CC(=O)Nc2ccc(-c3nccnc3NCc3ccccc3)cc2)cc1 [Example 57, N-(4-(3-(Benzylamino)pyrazin-2-yl)phenyl)-2-(4-(1,1-difluoropropyl)phenyl)acetamide] | 69.4 | 85.2 | 
6 | CCC(F)(F)c1ccc(CC(=O)Nc2ccc(-c3nccnc3NC(C)c3ccccc3)cc2)cc1 (stereo not drawn) [Example 58, 2-(4-(1,1-Difluoropropyl)phenyl)-N-(4-(3-((1-phenylethyl)amino)pyrazin-2-yl)phenyl)acetamide] | 80.3 | 90.7 | 100 to 500
7 | CCC(F)(F)c1ccc(CC(=O)Nc2ccc(-c3nccnc3N[C@H](C)c3ccccc3)cc2)cc1 [Example 59, (R)-2-(4-(1,1-Difluoropropyl)phenyl)-N-(4-(3-((1-phenylethyl)amino)pyrazin-2-yl)phenyl)acetamide] | 58.6 | 79.7 | 
8 | CCC(F)(F)c1ccc(CC(=O)Nc2ccc(-c3nccnc3N(C)[C@H](C)c3ccccc3)cc2)cc1 [Example 60, (R)-2-(4-(1,1-Difluoropropyl)phenyl)-N-(4-(3-(methyl(1-phenylethyl)amino)pyrazin-2-yl)phenyl)acetamide] | 69.6 | 83 | 100 to 500
9 | CCC(F)(F)c1ccc(CC(=O)Nc2ccc(-c3nccnc3N[C@@H](C)c3ccccc3)cc2)cc1 [Example 61, (S)-2-(4-(1,1-Difluoropropyl)phenyl)-N-(4-(3-((1-phenylethyl)amino)pyrazin-2-yl)phenyl)acetamide] | 84.2 | 91.4 | 50 to 100
10 | CCC(F)(F)c1ccc(CC(=O)Nc2ccc(-c3nccnc3N(C)[C@@H](C)c3ccccc3)cc2)cc1 [Example 62, (S)-2-(4-(1,1-Difluoropropyl)phenyl)-N-(4-(3-(methyl(1-phenylethyl)amino)pyrazin-2-yl)phenyl)acetamide] | 65.6 | 84.8 | 
11 | CCC(F)(F)c1ccc(CC(=O)Nc2ccc(-c3nccnc3N[C@@H](C)c3ccc(Cl)cc3)cc2)cc1 [Example 63, (S)-N-(4-(3-((1-(4-Chlorophenyl)ethyl)amino)pyrazin-2-yl)phenyl)-2-(4-(1,1-difluoropropyl)phenyl)acetamide] | 86.8 | 91.2 | 50 to 100
12 | CCC(F)(F)c1ccc(CC(=O)Nc2ccc(-c3nccnc3N[C@@H](C)c3cccc(Cl)c3)cc2)cc1 [Example 64, (S)-N-(4-(3-((1-(3-Chlorophenyl)ethyl)amino)pyrazin-2-yl)phenyl)-2-(4-(1,1-difluoropropyl)phenyl)acetamide] | 76.2 | 84.9 | 100 to 500
13 | CCC(F)(F)c1ccc(CC(=O)Nc2ccc(-c3nccnc3N(C)[C@@H](C)c3ccc(Cl)cc3)cc2)cc1 [Example 65, (S)-N-(4-(3-((1-(4-Chlorophenyl)ethyl)(methyl)amino)pyrazin-2-yl)phenyl)-2-(4-(1,1-difluoropropyl)phenyl)acetamide] | 76.1 | 83.2 | 100 to 500
14 | CCC(F)(F)c1ccc(CC(=O)Nc2ccc(-c3nccnc3N[C@@H](C)c3ccccc3Cl)cc2)cc1 [Example 66, (S)-N-(4-(3-((1-(2-Chlorophenyl)ethyl)amino)pyrazin-2-yl)phenyl)-2-(4-(1,1-difluoropropyl)phenyl)acetamide] | 88.4 | 90.2 | < 50
15 | CCC(F)(F)c1ccc(CC(=O)Nc2ccc(-c3nccnc3N[C@@H](C)c3ccc(F)cc3C)cc2)cc1 [Example 67, (S)-2-(4-(1,1-Difluoropropyl)phenyl)-N-(4-(3-((1-(4-fluoro-2-methylphenyl)ethyl)amino)pyrazin-2-yl)phenyl)acetamide] | 87.9 | 92.4 | < 50
16 | CC(O)C(F)(F)c1ccc(CC(=O)Nc2ccc(-c3nccnc3N[C@@H](C)c3ccccc3Cl)cc2)cc1 (stereo partly drawn) [Example 68, N-(4-(3-(((S)-1-(2-Chlorophenyl)ethyl)amino)pyrazin-2-yl)phenyl)-2-(4-(1,1-difluoro-2-hydroxypropyl)phenyl)acetamide] | 93.5 | 96.9 | < 50
17 | CCC(F)(F)c1ccc(CC(=O)Nc2ccc(-c3nccnc3N[C@@H](C)c3ccc(C)cc3C)cc2)cc1 [Example 69, (S)-2-(4-(1,1-Difluoropropyl)phenyl)-N-(4-(3-((1-(2,4-dimethylphenyl)ethyl)amino)pyrazin-2-yl)phenyl)acetamide] | 97 | 97.1 | < 50
18 | CCC(F)(F)c1ccc(CC(=O)Nc2ccc(-c3nccnc3N[C@@H](C)c3ccc(F)cc3Cl)cc2)cc1 [Example 70, (S)-N-(4-(3-((1-(2-Chloro-4-fluorophenyl)ethyl)amino)pyrazin-2-yl)phenyl)-2-(4-(1,1-difluoropropyl)phenyl)acetamide] | 94.1 | 93.8 | < 50
19 | CC(O)C(F)(F)c1ccc(CC(=O)Nc2ccc(-c3nccnc3NCC3CCCCC3)cc2)cc1 (stereo not drawn) [Example 71, N-(4-(3-((Cyclohexylmethyl)amino)pyrazin-2-yl)phenyl)-2-(4-(1,1-difluoro-2-hydroxypropyl)phenyl)acetamide] | 20.5 | 73.7 | 
20 | CC(O)C(F)(F)c1ccc(CC(=O)Nc2ccc(-c3nccnc3N[C@@H](C)c3ccc(Cl)cc3)cc2)cc1 (stereo partly drawn) [Example 72, N-(4-(3-(((S)-1-(4-Chlorophenyl)ethyl)amino)pyrazin-2-yl)phenyl)-2-(4-(1,1-difluoro-2-hydroxypropyl)phenyl)acetamide] | 86.9 | 93.4 | < 50
21 | CC(O)C(F)(F)c1ccc(CC(=O)Nc2ccc(-c3nccnc3N[C@@H](C)c3ccccc3Cl)cc2F)cc1 (stereo partly drawn) [Example 73, N-(4-(3-(((S)-1-(2-Chlorophenyl)ethyl)amino)pyrazin-2-yl)-2-fluorophenyl)-2-(4-(1,1-difluoro-2-hydroxypropyl)phenyl)acetamide] | 78.5 | 89.2 | 100 to 500
22 | CC(O)C(F)(F)c1ccc(CC(=O)Nc2ccc(-c3nccnc3N[C@@H](C)c3ccccc3Cl)c(F)c2)cc1 (stereo partly drawn) [Example 74, N-(4-(3-(((S)-1-(2-Chlorophenyl)ethyl)amino)pyrazin-2-yl)-3-fluorophenyl)-2-(4-(1,1-difluoro-2-hydroxypropyl)phenyl)acetamide] | 79.2 | 89.9 | 50 to 100
23 | CCC(F)(F)c1ccc(CC(=O)Nc2ccc(-c3nccnc3OCc3ccccc3)cc2)cc1 [Example 75, N-(4-(3-(Benzyloxy)pyrazin-2-yl)phenyl)-2-(4-(1,1-difluoropropyl)phenyl)acetamide] | 75.7 | 84.2 | 50 to 100

— patent publication US10344024B2, “Compounds as ROR gamma modulators” (Glenmark Pharmaceuticals S.A., priority 2015, dated 2019)
